The text below walks through data of PMC12549899 (Nature Communications, 2025).

Values joined by “and” are separate entries in the source; they are usually repeats but may differ in a detail not shown here. Equal entries are not always repeated.

For this assay, the target named is T1, DrOTOP1 M573W (Danio rerio, UniProt Q7ZWK8, M573W).
T1 construct: A previously generated codon-optimized full-length DrOTOP1[8]; (UniProt: Q7ZWK8) construct; expressed in transfected cells; host or cells: HEK-293 (CRL-1573, ATCC)
T1 sequence (Q7ZWK8 1-586 M573W): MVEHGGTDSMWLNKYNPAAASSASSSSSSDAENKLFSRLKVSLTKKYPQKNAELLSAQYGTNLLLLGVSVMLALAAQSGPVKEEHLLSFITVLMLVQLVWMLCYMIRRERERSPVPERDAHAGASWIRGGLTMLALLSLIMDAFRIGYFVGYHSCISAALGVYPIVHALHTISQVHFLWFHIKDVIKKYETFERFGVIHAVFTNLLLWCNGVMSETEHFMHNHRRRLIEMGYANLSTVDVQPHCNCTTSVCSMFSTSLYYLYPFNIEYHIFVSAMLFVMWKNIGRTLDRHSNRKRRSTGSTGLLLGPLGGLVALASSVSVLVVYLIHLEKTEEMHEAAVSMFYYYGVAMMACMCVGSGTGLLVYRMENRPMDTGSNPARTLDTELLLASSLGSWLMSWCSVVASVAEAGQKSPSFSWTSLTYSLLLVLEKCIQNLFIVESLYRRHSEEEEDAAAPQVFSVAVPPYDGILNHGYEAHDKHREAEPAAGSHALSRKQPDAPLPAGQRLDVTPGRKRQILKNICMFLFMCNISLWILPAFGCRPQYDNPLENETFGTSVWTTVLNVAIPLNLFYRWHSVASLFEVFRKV
Nature of the assay: Whole-cell patch-clamp, inhibition of acid-evoked currents, DrOTOP1 M573W (outer site). It is filed as cell-based, zebrafish (Danio rerio). The text has this: To functionally test the significance of the two binding sites identified by cryo-EM, we generated point mutations of DrOTOP1 using the binding poses and conformational changes observed in DrOTOP1_C2.2 to guide our mutations. As per the binding pose that best fits our cryo-EM density, C2.2 forms the following interactions in the outer site: hydrophobic packing against many non-polar residues W126, G130, M133, L134, F271, F570, and M573, and π-stacking with W532 (Fig. 5A). In addition, C2.2 could potentially form H-bonds with E267, if the sidechain is protonated or a water bridge is present, and with H574 if it moves closer (Fig. 5A). Likewise, C2.36 presents a heterocyclic nitrogen that can potentially form a H-bond with E267, similarly, provided a protonation or water bridge is present (Fig. 5B). In addition, C2.36 forms a T-shaped π-stacking interaction with H574, whose sidechain has rotated 90 degrees (compared to DrOTOP1_apo), presumably to accommodate the interaction (Fig. 5B). Considering other inhibitors discovered from the second round of screening, many contain functional groups like the carbonyl groups of Group 1 molecules and the heterocyclic nitrogen atoms of Group 2 molecules (Supplementary Fig. 3E), that can potentially form similar H-bonds with E267 as C2.2 and C2.36, assuming the binding modes are similar. In the central site, C2.2 binds with the following interactions: hydrophobic packing with residues V201, F271, A274, V278, and A388, π-stacking with F277, and H-bonding with E384 (Fig. 5C).
Each non-aromatic residue was mutated to tryptophan, which was expected to cause steric occlusion. […] This seemed appropriate given the small number of H-bonds in these pockets, the ambiguity of how the inhibitors fit the density, and the prevalence of hydrophobic packing interactions (Fig. 5A–C).
HEK-293 cells (CRL-1573, ATCC) were cultured in DMEM (Thermofisher 11995073) containing 10% fetal bovine serum (Life Technology 16000044) and Penicillin-Streptomycin (100 I.U./mL) and (100 µg/mL), respectively. Cells were transfected with WT DrOTOP1 or mutant DrOTOP1 channels in 35 mm petri dishes, with ~ 500 ng DNA and 2 μL TransIT-LT1 transfection reagent (Mirus Bio Corporation, Cat # MIR2300) following the manufacturer’s protocol. All constructs were subcloned into a pcDNA3.1 vector that adds an N-terminal fusion tag consisting of an octahistidine tag followed by eGFP, a Gly-Thr-Gly-Thr linker and a 3C protease cleavage site ([…]) followed by WT DrOTOP1, WT mOTOP1, WT hOTOP1, or mutated DrOTOP1. Point mutations were generated via In-Fusion Cloning (Takara) using single-stranded DNA primers generated through IDT and sequence confirmed by Sanger sequencing (GeneWiz).
Whole-cell patch-clamp recording was performed as previously described[6],[22],[25]. Recordings were made with an Axopatch 200B amplifier, digitized with a Digidata 1322a 16-bit data acquisition system, acquired with pClamp 8.2 and analyzed with Clampfit 10 (Molecular Devices). Recordings were sampled at 5 kHz and filtered at 1 kHz. Patch Pipettes with resistance of […] were fabricated from borosilicate glass, and only recordings with a giga-Ohm seal were used in analysis. Membrane potential was held at −80 mV for the duration of recordings. At the beginning of recordings and between, cells were washed with Tyrode’s solution (see below). Once a giga-Ohm seal was reached, cells were lifted and placed in front of microcapillary tubes controlled by a Fast-Step perfusion system (Warner Instruments) so that extracellular solutions could be rapidly exchanged during each experiment.
Standard Tyrode’s solution consisted of 145 mM NaCl, 5 mM KCl, MgCl2, 2 mM CaCl2, 20 mM D-Glucose, and 10 mM HEPES (for pH 7.4). All other extracellular patch-clamp solutions contained 160 mM NMDG-Cl, 2 mM CaCl2, and the following buffers: 10 mM HEPES (for pH 7.4), 10 mM MES (for pH 6.5-5.5), 10 mM CHES for pH 10, and 10 mM HomoPIPES for (pH 5.0). pH adjusted with HCl. […]

In the case of `C=C(C)COc1ccccc1NC(=O)c1nc[nH]c1C` [C2.2], the Hill coefficient is given as 1.238. The molecule further registered an inhibition at 3 µM (3 µM, single cells) of 4.02%. This molecule showed an inhibition at 30 µM (30 µM, single cells) of 46.6%. Testing at 100 µM (100 µM, single cells) gave an inhibition of 84.3%. The molecule further showed an inhibition at 300 µM (300 µM, single cells) of 91.4%. For the setting “pH 5.5”, this molecule returned an IC50 of 30.4 µM.

As to `O=C(/C(=N\O)c1ccccc1)c1ccccc1` [C11, benzil monoxime], under “100 µM, single cells”, the Inhibition of currents is 53.3175% and 66.3617% and 67.3077% and 51.54%; the inhibition at 100 µM was 51.6%.
